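Briefly, cells in 96-well plates were exposed to five compound concentrations for 48 h, and endpoints were estimated by linear interpolation. GI50 marks 50% less growth.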 Active and inactive are the calls of the source. Cut-off read from the data, not from the text of the source: active = GI50 up to about 1.1 µM and inactive = higher.
Columns and labels:
Experiment in all cases: DTP human tumour cell line panel, 48 h
[1] = test system: HCT-15
[2] = test system: UACC-257
[3] = test system: HCT-116
[4] = test system: SN12C
[5] = test system: OVCAR-8
[6] = test system: OVCAR-5
[7] = test system: TK-10
[8] = test system: Malme-3M
[9] = test system: SF-295
[10] = test system: OVCAR-3
[11] = test system: NCI-H226
[12] = test system: K562
[13] = test system: NCI-H460
[14] = test system: EKVX
[15] = test system: HCC 2998
[16] = test system: COLO 205
[17] = test system: SK-MEL-28
[18] = test system: SK-MEL-5
[19] = test system: A498
[20] = test system: HL-60

SMILES	GI50 [1]	GI50 [2]	GI50 [3]	GI50 [4]	GI50 [5]	GI50 [6]	GI50 [7]	GI50 [8]	GI50 [9]	GI50 [10]	GI50 [11]	GI50 [12]	GI50 [13]	GI50 [14]	GI50 [15]	GI50 [16]	GI50 [17]	GI50 [18]	GI50 [19]	GI50 [20]
CC(=O)NNc1nc(C)c(C(=O)NNC(=O)C(=O)Nc2ccc([N+](=O)[O-])cc2C#N)s1	> 100 µM	> 100 µM (inactive)	> 100 µM (inactive)	> 100 µM (inactive)	> 100 µM (inactive)	> 100 µM (inactive)	> 100 µM (inactive)	> 100 µM (inactive)	> 10 µM (inactive)	63.5 µM (inactive)	> 100 µM (inactive)	38.1 µM (inactive)	> 100 µM (inactive)	96.4 µM (inactive)	> 100 µM (inactive)	> 100 µM (inactive)	> 100 µM (inactive)	> 100 µM (inactive)	58.1 µM (inactive)	> 100 µM (inactive)
OC[C@H]1C[C@@H]2Cc3ccccc3N2N1	> 100 µM	> 100 µM (inactive)	> 100 µM (inactive)	> 100 µM (inactive)	> 100 µM (inactive)	> 100 µM (inactive)	> 100 µM (inactive)	> 100 µM (inactive)	> 100 µM (inactive)	> 100 µM (inactive)	> 100 µM (inactive)	> 100 µM (inactive)	> 100 µM (inactive)	> 100 µM (inactive)	> 100 µM (inactive)	> 100 µM (inactive)	> 100 µM (inactive)	> 100 µM (inactive)	> 100 µM (inactive)	> 100 µM (inactive)
CC(=O)c1c2c(cc3c1CC1(Cc4cc5c(cc4C1)C(=O)CCC5)C3)CCCC2 (stereo not given)	3.94 µM	3.34 µM (inactive)	14.4 µM (inactive)	13.4 µM (inactive)	13.9 µM (inactive)	35.2 µM (inactive)	16.5 µM (inactive)	6.64 µM (inactive)	8.24 µM (inactive)	7.59 µM (inactive)	3.5 µM (inactive)	1.76 µM (inactive)	4.69 µM (inactive)	> 23.8 µM (inactive)	12.5 µM (inactive)	4.86 µM (inactive)	7.38 µM (inactive)	2.21 µM (inactive)	0.822 µM (active)	1.82 µM (inactive)

Reference: ChEMBL document CHEMBL1201862, “PubChem BioAssay data set” (2004)
